# Article PMC7146574, “Efficacy of a Novel ACE-Inhibitory Peptide from Sargassum maclurei in Hypertension and Reduction of Intracellular Endothelin-1” (Nutrients, 2020)
# Residues, ends and D or L forms follow the SMILES beside them.
# Experiments:
# [1] = tested on: spontaneously hypertensive rats (SHRs); test: Antihypertensive effect in vivo, tail-cuff method; parameters: species or system rat; settings: oral 50, 100 and 150 mg/kg body weight every day (Figure S3)
# Procedure: Twenty male spontaneously hypertensive rats (SHRs; 11 weeks, 240 ± 20 g body weight) from Vital River Laboratory Animal Technology Co., Ltd. (Beijing, China) were randomly divided into five groups of four rats each: negative control, positive control, and high-, middle- and low- dosage groups. Normal diet and tap water were freely available. Rats in the high-, middle-, and low-dose groups were orally given the synthetic peptide (RWDISQPY) via gastric intubation at 150, 100, and 50 mg/kg/body weight once daily, respectively. Meanwhile, rats in the positive control were orally given captopril (14 mg/kg/body weight once daily), and rats in the negative control were just administrated saline (0.9%). The diastolic blood pressure (DBP) and systolic blood pressure (SBP) of the rats were measured by the tail-cuff method once a week. The heart rate was recorded simultaneously. The animal experiment was conducted in conformity with institutional guidelines for the care and use of laboratory animals in Shanxi Normal University (No. 20181003, 16 September 2018), Linfen, China. All of the rats received human care conforming to the National Institutes of Health Guide for Care and Use of Laboratory Animals (National Institute of Health Publication No. 85–23, revised).
# [2] = tested on: endothelin-1 (ET-1) in EA.hy926 cells; test: Effects on intracellular endothelin-1 (ET-1), ELISA of growth medium; type: cell-based, human; settings: captopril 1.0 mg/mL as comparison, 48 h
# Procedure: In a humidified atmosphere with 5% CO2, the EA.hy926 cells (a permanent hybridoma of the human umbilical vein endothelial cells and human lung carcinoma cell line A549) grown in 96-well plates were cultured in DMEM containing non-essential amino acids (10 mg/mL), streptomycin (0.1 mg/mL), and fetal bovine serum (0.1 g/mL) at 37 °C [5]. The cells (1.0 × 10^5 cells mL^−1) were treated with the synthesized peptides (0.5–1.5 mg/mL) for 24 h, and then the MTT assay was used to measure the cytotoxicity levels of the peptides. Moreover, EA.hy926 cells seeded in another 96-well plate (1.0 × 10^5 cells mL^−1) were cultured in DMEM at 37 °C for 24 h, and then treated with synthesized peptides (1–2 mg/mL) for 48 h. After that, the ET-1 content of the growth medium in each well was quantified by the ET-1 Elisa kit according to the instructions. Cells in the blank group were not treated with samples, while the cells in the positive group were treated with captopril (1 mg/mL). The inhibition ability on ET-1 was calculated as follows:(1) Inhibition abliliy (%)=(CB−Cs)/CB×100% where CB was the ET-1 content of the growth medium in the blank group and CS was the ET-1 content of the growth medium treated with the samples.
# ACE = tested on: ACE; parameters: method as in 5 sources, ref 8, 38 = [8]; PMID 30893907; doi:10.3390/md17030179; 8. Sun S. Xu X. Sun X. Zhang X. Chen X. Xu N. Preparation and Identification of ACE Inhibitory Peptides from the Marine Macroalga Ulva intestinalis Mar. Drugs 2019 17 179 10.3390/md17030179 PMC6471128 || [38]; doi:10.1016/j.jff.2015.10.025; 38. Forghani B. Zarei M. Ebrahimpour A. Philip R. Bakar J. Abdul-Hamid A. Saari N. Purification and characterization of angiotensin converting enzyme-inhibitory peptides derived from Stichopus horrens ||| ref 5, 9 = [5]; PMID 31108740; doi:10.1016/j.foodres.2019.03.035; 5. Zhao Y. Zhang L. Tao J. Chi C. Wang B. Eight antihypertensive peptides from the protein hydrolysate of Antarctic krill ( Euphausia superba ): Isolation, identification, and activity evaluation on h || [9]; PMID 30229250; doi:10.1039/C8FO00569A; 9. Ling Y. Sun L.P. Zhuang Y.L. Preparation and identification of novel inhibitory angiotensin-I-converting enzyme peptides from tilapia skin gelatin hydrolysates: Inhibition kinetics and molecular do ||| ref 38, 40 = [38]; doi:10.1016/j.jff.2015.10.025; 38. Forghani B. Zarei M. Ebrahimpour A. Philip R. Bakar J. Abdul-Hamid A. Saari N. Purification and characterization of angiotensin converting enzyme-inhibitory peptides derived from Stichopus horrens || [40]; PMID 29606478; doi:10.1016/j.foodchem.2018.02.107; 40. Tu M. Wang C. Chen C. Zhang R. Liu H. Lu W. Jing L. Du M. Identification of a novel ACE-inhibitory peptide from casein and evaluation of the inhibitory mechanisms Food Chem. 2018 256 98 104 10.101 ||| ref 41, 28 = [41]; doi:10.1016/j.lwt.2018.12.059; 41. Bhaskar B. Ananthanarayana L. Jamdar S. Purification, identification, and characterization of novel angiotensin I converting enzyme (ACE) inhibitory peptides from alcalase digested horse gram flou || [28]; doi:10.1016/j.jff.2017.03.008; 28. Lin K. Zhang L. Han X. Cheng D.Y. Novel angiotensin I-converting enzyme inhibitory peptides from protease hydrolysates of Qula casein: Quantitative structure-activity relationship modeling and mol ||| ref 25 = [25]; doi:10.1016/j.lwt.2016.08.047; 25. Wang X. Chen H. Fu X. Li S. Wei J. A novel antioxidant and ACE inhibitory peptide from rice bran protein: Biochemical characterization and molecular docking study LWT Food Sci. Technol. 2017 75 93; settings: cited from earlier work; for IC50: literature comparison
Molecule,IC50 (ACE),ACE inhibition pattern (ACE),other results
CC[C@H](C)[C@H](NC(=O)[C@H](CC(=O)O)NC(=O)[C@H](Cc1c[nH]c2ccccc12)NC(=O)[C@@H](N)CCCNC(=N)N)C(=O)N[C@@H](CO)C(=O)N[C@@H](CCC(N)=O)C(=O)N1CCC[C@H]1C(=O)N[C@@H](Cc1ccc(O)cc1)C(N)=O [RWDISQPY] (H-RWDISQPY-NH2),,,Effect on heart rate [1]: no side effect; Effect on normal increase in body weight [1]: no side effect
C[C@H](CS)C(=O)N1CCC[C@H]1C(=O)O [captopril],,,Effect on ET-1 secretion [2]: reduce ET-1 secretion
FGMPLDR,219 µM,,
GSAGY [literature peptide identified from horrens protein],706 µM,,
NMAINPSKENLCSTFCK,129 µM,,
PFPGPIPN,,competitive,
QAGLSPVR,63.9 µM,,
QLLLQQ,,competitive,
TVGMTAKF,,competitive,
VSRHFASYAN,210 µM,,
